Measurements as given in PubChem BioAssay AID248 (DTP/NCI, 2004).
Toxic doses and inconclusive results are not listed. Rule as the data show it: active = T/C of 150% or more; inactive = T/C below 125%.

System: L1210 leukemia ip in BDF1 mice, survival T/C
Assay: NCI In Vivo Anticancer Drug Screen. Data for tumor model L1210 Leukemia (intraperitoneal) in B6D2F1 (BDF1) mice
Settings: endpoint: mean survival time, higher = longer survival
Procedure, shortened: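 Read-out is survival time, reported as the treated-group measurement over the vehicle-control measurement.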

[1] = dose: 75.0 mg/kg/injection, schedule: Q01DX001 (ip), vehicle: saline
[2] = dose: 100.0 mg/kg/injection, schedule: Q01DX001 (ip), vehicle: carboxymethylcellulose (CMC)
[3] = dose: 150.0 mg/kg/injection, schedule: Q01DX001 (ip), vehicle: saline
[4] = dose: 400.0 mg/kg/injection, schedule: Q01DX001 (ip), vehicle: carboxymethylcellulose (CMC)
[5] = dose: 100.0 mg/kg/injection, schedule: Q01DX001 (ip), vehicle: saline
[6] = dose: 200.0 mg/kg/injection, schedule: Q01DX001 (ip), vehicle: saline
[7] = dose: 400.0 mg/kg/injection, schedule: Q01DX001 (ip), vehicle: saline
[8] = dose: 50.0 mg/kg/injection, schedule: Q04DX002 (ip), vehicle: Klucel (hydroxypropylcellulose) (HPC)
[9] = dose: 100.0 mg/kg/injection, schedule: Q04DX002 (ip), vehicle: Klucel (hydroxypropylcellulose) (HPC)
[10] = dose: 200.0 mg/kg/injection, schedule: Q04DX002 (ip), vehicle: Klucel (hydroxypropylcellulose) (HPC)
[11] = dose: 100.0 mg/kg/injection, schedule: Q01DX009 (ip), vehicle: Klucel (hydroxypropylcellulose) (HPC)
[12] = dose: 200.0 mg/kg/injection, schedule: Q01DX009 (ip), vehicle: Klucel (hydroxypropylcellulose) (HPC)
[13] = dose: 400.0 mg/kg/injection, schedule: Q01DX009 (ip), vehicle: Klucel (hydroxypropylcellulose) (HPC)
[14] = dose: 400.0 mg/kg/injection, schedule: Q04DX002 (ip), vehicle: Klucel (hydroxypropylcellulose) (HPC)
[15] = dose: 100.0 mg/kg/injection, schedule: Q04DX003 (ip), vehicle: Klucel (hydroxypropylcellulose) (HPC)
[16] = dose: 200.0 mg/kg/injection, schedule: Q04DX003 (ip), vehicle: Klucel (hydroxypropylcellulose) (HPC)
[17] = dose: 400.0 mg/kg/injection, schedule: Q04DX003 (ip), vehicle: Klucel (hydroxypropylcellulose) (HPC)
[18] = dose: 100.0 mg/kg/injection, schedule: Q04DX003 (ip), vehicle: saline with Tween-80
[19] = dose: 200.0 mg/kg/injection, schedule: Q04DX003 (ip), vehicle: saline with Tween-80
[20] = dose: 400.0 mg/kg/injection, schedule: Q04DX003 (ip), vehicle: saline with Tween-80
[21] = dose: 100.0 mg/kg/injection, schedule: Q01DX009 (ip), vehicle: saline with Tween-80
[22] = dose: 200.0 mg/kg/injection, schedule: Q01DX009 (ip), vehicle: saline with Tween-80
[23] = dose: 400.0 mg/kg/injection, schedule: Q01DX009 (ip), vehicle: saline with Tween-80
[24] = dose: 100.0 mg/kg/injection, schedule: Q04DX002 (ip), vehicle: saline with Tween-80
[25] = dose: 200.0 mg/kg/injection, schedule: Q04DX002 (ip), vehicle: saline with Tween-80

Measured: T/C

COc1cc(N(CCCl)CCCl)c(OC)cc1/C=N/NC(=O)CC(N)C(=O)O (stereo unspecified)
active: dose: 600.0 mg/kg/injection, schedule: Q01DX001 (ip), vehicle: carboxymethylcellulose (CMC) 153 % of control
inactive: dose: 12.37 mg/kg/injection, schedule: Q01DX009 (ip), vehicle: saline 107 % of control | dose: 12.5 mg/kg/injection, schedule: Q01DX009 (ip), vehicle: saline with Tween-80 113 % of control | dose: 18.75 mg/kg/injection, schedule: Q01DX009 (ip), vehicle: saline 112 % of control | dose: 25.0 mg/kg/injection, schedule: Q01DX009 (ip), vehicle: saline with Tween-80 119 % of control | dose: 28.12 mg/kg/injection, schedule: Q01DX009 (ip), vehicle: saline 112 % of control | dose: 37.5 mg/kg/injection, schedule: Q01DX009 (ip), vehicle: saline 88 % of control | dose: 37.5 mg/kg/injection, schedule: Q04DX003 (ip), vehicle: acetone 111 % of control | dose: 50.0 mg/kg/injection, schedule: Q01DX009 (ip), vehicle: saline with Tween-80 119 % of control | [1] 123 % of control | dose: 75.0 mg/kg/injection, schedule: Q01DX009 (ip), vehicle: saline 88 % of control | dose: 75.0 mg/kg/injection, schedule: Q04DX003 (ip), vehicle: acetone 105 % of control | [2] 115 % of control | dose: 100.0 mg/kg/injection, schedule: Q01DX009 (ip), vehicle: other 120 % of control | [3] 123 % of control | dose: 150.0 mg/kg/injection, schedule: Q04DX003 (ip), vehicle: acetone 113 % of control | dose: 177.0 mg/kg/injection, schedule: Q01DX001 (ip), vehicle: carboxymethylcellulose (CMC) 120 % of control | dose: 266.0 mg/kg/injection, schedule: Q01DX001 (ip), vehicle: carboxymethylcellulose (CMC) 124 % of control | [4] 118 % of control

Nc1ncnc2nc(I)[nH]c12
inactive: [5] 93 % of control | [6] 98 % of control

O=C(Sc1n[nH]c(=O)[nH]c1=O)c1ccccc1
inactive: [5] 109 % of control | [6] 107 % of control | [7] 105 % of control

CCN(CC)Cc1ccccc1COC(=O)c1cccc(Br)c1
inactive: [8] 111 % of control | [9] 118 % of control | [10] 103 % of control

Cc1ccc(C)c(NC(=O)Nc2cccc(O)c2)c1
inactive: [11] 102 % of control | [9] 109 % of control | [12] 103 % of control | [10] 102 % of control | [13] 94 % of control | [14] 109 % of control

O=[N+]([O-])c1ccccc1N1CCCCC1
inactive: [15] 97 % of control | [16] 89 % of control | [17] 109 % of control

Nc1cc(S(=O)(=O)O)cc2cc(S(=O)(=O)O)c(N=Nc3cc(S(=O)(=O)O)cc4cc(S(=O)(=O)O)cc(O)c34)c(O)c12
inactive: dose: 100.0 mg/kg/injection, schedule: Q01DX009 (ip), vehicle: saline 105 % of control | dose: 100.0 mg/kg/injection, schedule: Q04DX003 (ip), vehicle: saline 96 % of control | dose: 200.0 mg/kg/injection, schedule: Q01DX009 (ip), vehicle: saline 94 % of control | dose: 200.0 mg/kg/injection, schedule: Q04DX003 (ip), vehicle: saline 91 % of control | dose: 400.0 mg/kg/injection, schedule: Q01DX009 (ip), vehicle: saline 95 % of control | dose: 400.0 mg/kg/injection, schedule: Q04DX003 (ip), vehicle: saline 96 % of control

COc1ccc(C(CC(=O)O)c2ccccc2)cc1 (stereo unspecified)
inactive: [5] 94 % of control | [6] 93 % of control | [7] 100 % of control

O=C(CC(=O)c1ccccc1)Nc1cccc([N+](=O)[O-])c1
inactive: [18] 90 % of control | [19] 86 % of control | [20] 86 % of control

COC(=O)C1CC(O)CC(C(=O)OC)O1 (stereo unspecified)
inactive: [1] 109 % of control | [3] 93 % of control

Cc1nc(NN)ccc1[N+](=O)[O-]
inactive: [9] 96 % of control | [10] 90 % of control | [14] 96 % of control

Nc1nc(N)nc(SCCO)n1
inactive: [11] 99 % of control | [12] 110 % of control | [13] 93 % of control

O=S(=O)(Nc1ccccn1)c1ccccc1
inactive: [12] 103 % of control | [13] 98 % of control

O=C1c2ccccc2C(=O)c2c(Cl)ccc(O)c21
inactive: [11] 98 % of control | [15] 97 % of control | [12] 105 % of control | [16] 97 % of control | [13] 101 % of control | [17] 96 % of control

CCOC(=O)c1cnc(SC)nc1Nc1ccc(F)cc1
inactive: [15] 88 % of control | [16] 100 % of control | [17] 95 % of control

CCCCN(CCCl)C1c2ccccc2-c2ccccc21
inactive: dose: 25.0 mg/kg/injection, schedule: Q04DX002 (ip), vehicle: Klucel (hydroxypropylcellulose) (HPC) 106 % of control | [8] 95 % of control

N#CC(c1ccccc1)c1cccc(C(=O)O)c1 (stereo unspecified)
inactive: [2] 105 % of control | dose: 200.0 mg/kg/injection, schedule: Q01DX001 (ip), vehicle: carboxymethylcellulose (CMC) 86 % of control | [4] 91 % of control

CCCCSP(=S)(SCCCC)SCCCC
inactive: dose: 100.0 mg/kg/injection, schedule: Q01DX001 (ip), vehicle: Klucel (hydroxypropylcellulose) (HPC) 94 % of control | [21] 105 % of control | dose: 200.0 mg/kg/injection, schedule: Q01DX001 (ip), vehicle: Klucel (hydroxypropylcellulose) (HPC) 94 % of control | [22] 105 % of control | dose: 400.0 mg/kg/injection, schedule: Q01DX001 (ip), vehicle: Klucel (hydroxypropylcellulose) (HPC) 97 % of control | [23] 102 % of control

CCSc1nc(C)cc(Cl)n1
inactive: [18] 100 % of control | [19] 93 % of control

CCCCCCCCC(C)C
inactive: [24] 100 % of control | [25] 97 % of control

COC(=O)C1=CNC=C(C(=O)OC)C1c1ccc(C)cc1
inactive: [18] 95 % of control | [19] 93 % of control | [20] 91 % of control

CC(=O)OCc1ccc(O)c2ncccc12
inactive: dose: 75.0 mg/kg/injection, schedule: Q01DX001 (ip), vehicle: carboxymethylcellulose (CMC) 96 % of control | dose: 150.0 mg/kg/injection, schedule: Q01DX001 (ip), vehicle: carboxymethylcellulose (CMC) 100 % of control

C=COC(=O)c1ccccc1
inactive: [21] 98 % of control | [24] 93 % of control | [22] 98 % of control | [25] 93 % of control | [23] 95 % of control | dose: 400.0 mg/kg/injection, schedule: Q04DX002 (ip), vehicle: saline with Tween-80 93 % of control

O=C(Cc1ccccc1)c1ccc(O)cc1O
inactive: dose: 50.0 mg/kg/injection, schedule: Q01DX001 (ip), vehicle: saline 104 % of control | [5] 104 % of control | dose: 100.0 mg/kg/injection, schedule: Q04DX003 (ip), vehicle: gum acacia 113 % of control | [6] 102 % of control | dose: 200.0 mg/kg/injection, schedule: Q04DX003 (ip), vehicle: gum acacia 98 % of control | [7] 102 % of control | dose: 400.0 mg/kg/injection, schedule: Q04DX003 (ip), vehicle: gum acacia 101 % of control

Nc1ncnc2c1ncn2CCCCCl
inactive: dose: 12.0 mg/kg/injection, schedule: Q04DX003 (ip), vehicle: saline 93 % of control | dose: 12.5 mg/kg/injection, schedule: Q01DX009 (ip), vehicle: saline 119 % of control | dose: 25.0 mg/kg/injection, schedule: Q01DX009 (ip), vehicle: saline 97 % of control | dose: 25.0 mg/kg/injection, schedule: Q04DX003 (ip), vehicle: saline 107 % of control | dose: 50.0 mg/kg/injection, schedule: Q01DX009 (ip), vehicle: saline 106 % of control | dose: 50.0 mg/kg/injection, schedule: Q04DX003 (ip), vehicle: saline 93 % of control
